Assay: Solubility of Mesotrione in solvents
Format: physicochemical
Source text: Mesotrione has been introduced in both Rhodiasolv® Li-Tec 2v and Rhodiasolv® Polarclean. Mesotrione is not soluble in Rhodiasolv® Li-Tec 2v and is soluble in (for instance at concentration of 30 g/L) Rhodiasolv® Polarclean.

For `CS(=O)(=O)c1ccc(C(=O)C2C(=O)CCCC2=O)c([N+](=O)[O-])c1` [Mesotrione, 2-(4-methylsulfonyl-2-nitrobenzoyl)-cyclohexane-1,3-dione], the “Solubility in Rhodiasolv® Li-Tec 2v” value (solvent Rhodiasolv® Li-Tec 2v) was “not soluble” and the “Solubility in Rhodiasolv® Polarclean” value (solvent Rhodiasolv® Polarclean, for instance at concentration of 30 g/L) was “soluble”.

From patent US12484579B2, “Agrochemical composition and methods of preparing and using the same” (priority 2018, dated 2025)
